The record followed here is patent US8017772B2, “Substituted tetrahydropyrrolopyrazine compounds and the use thereof in the treatment and/or inhibition of pain” (Gruenenthal GmbH, priority 2006, dated 2011).

As a reminder, the pEC50 is the EC50 on a negative log10 scale, so that one unit is a factor of ten. Low readings indicate a large EC50, high ones a small EC50.

pEC50: −log10 of the molar value.

In assay [1] the target is T1, hKCNQ2/3 (Homo sapiens, UniProt O43525+O43526). The experiment in a line: Fluorescence assay using a voltage sensitive dye (BMG). The format is cell-based. To be noted: CHO-K1 cells expressing KCNQ2/3; for activation at 10 µM: agonistic activity at 10 μM, read-out: BMG AG %@10 μm. On the procedure:
11. Biological Data 12. Fluorescence Assay Using a Voltage Sensitive Dye
Human CHO-K1 cells expressing KCNQ2/3 channels are cultivated adherently at 37° C., 5% CO2 and 95% humidity in cell culture bottles (e.g. 80 cm^2 TC flasks, Nunc) with MEM Alpha Medium (1×, liquid, Invitrogen, #22571), 10% fetal calf serum (FCS) (Invitrogen, #10270-106, heat-inactivated) and the necessary selection antibiotics.
Before being sown out for the measurements, the cells are washed with a 1×DPBS buffer without Ca^2+/Mg^2+ (e.g. Invitrogen, #14190-094) and detached from the bottom of the culture vessel by means of Accutase (PAA Laboratories, #L11-007) (incubation with Accutase for 15 min at 37° C.). The cell count then present is determined using a CASY™ cell counter (TCC model, Schärfe System) in order subsequently to apply 20,000 cells/well/100 μl of the described nutrient medium to 96-well measuring plates of the Corning™ CellBIND™ type (Flat Clear Bottom Black Polystyrene Microplates, #3340). Incubation is then carried out for one hour at room temperature, without gassing or adjusting the humidity, followed by incubation for 24 hours at 37° C., 5% CO2 and 95% humidity.
The voltage-sensitive fluorescent dye from the Membrane Potential Assay Kit (Red™ Bulk format part R8123 for FLIPR, Molecular Devices™) is prepared by dissolving the contents of a vessel Membrane Potential Assay Kit Red Component A in 200 ml of extracellular buffer (ES buffer, 120 mM NaCl, 1 mM KCl, 10 mM HEPES, 2 mM CaCl2, 2 mM MgCl2, 10 mM glucose; pH 7.4). After removal of the nutrient medium, the cells are washed with 200 μl of ES buffer, then covered with a layer of 100 μl of the dye solution prepared above and incubated for 45 min at room temperature with the exclusion of light.
The fluorescence measurements are carried out with a BMG Labtech FLUOstar™ or BMG Labtech POLARstar™ instrument (525 nm excitation, 560 nm emission, Bottom Read mode). After incubation of the dye, […] of the test substances in the desired concentrations, or 50 μl of ES buffer for control purposes, are introduced into separate cavities of the measuring plate and incubated for 30 min at room temperature while being shielded from light. The fluorescence intensity of the dye is then measured for 5 min and the fluorescence value F1 of each well is thus determined at a given, constant time. 15 μl of a […] KCl solution ([…]) are then added to each well. The change in fluorescence is subsequently measured until all the relevant measured values have been obtained (mainly 5-30 min). At a given time after KCl application, a fluorescence value F2 is determined, in this case at the time of the fluorescence peak.
For calculation, the fluorescence intensity F2 is compared with the fluorescence intensity F1, and the agonistic activity of the target compound on the potassium channel is determined therefrom. F2 and F1 are calculated as follows:
[formula] In order to determine whether a substance has an agonistic effect,
[formula] for example, can be compared with
[formula] determined by adding to the reaction batch only the buffer solution instead of the substance to be tested, determining the value F1K of the fluorescence intensity, adding the potassium ions as described above and measuring a value F2K of the fluorescence intensity. Then F2K and F1K are calculated as follows: […]
A substance has an agonistic activity on the potassium channel when
[formula] is greater than
[formula] Independently of the comparison of
[formula] it is also possible to conclude that a target compound has agonistic activity if an increase in
[formula] is to be observed as the dosage of the target compound increases. Calculations of EC50 and IC50 values are carried out with the aid of “Prism 4” software (GraphPad Software™). The following compounds were tested by way of example: […]

Assay [2] addresses T1, hKCNQ2/3. Description: Voltage clamp (patch-clamp) measurements on stably transfected hKCNQ2/3 CHO-K1 cell line. The format is cell-based. Conditions: potential −40 mV, relative to retigabine (RG = 1). On the procedure: Voltage Clamp Measurements
In order to confirm a KCNQ2/3-agonistic action of the substances electrophysiologically, patch-clamp measurements (Hamill et al., 1981) were carried out in voltage clamp mode on a stably transfected hKCNQ2/3 CHO-K1 cell line. After formation of the gigaseal, the cells were first clamped at a holding potential of −60 mV. Thereafter, depolarizing voltage jumps were applied up to a potential of +20 mV (increment: 20 mV, duration: 1 second) in order to confirm the functional expression of KCNQ2/3-typical currents. The testing of the substances was carried out at a potential of −40 mV. The increase in current induced by retigabine (10 at −40 mV was first recorded as a positive control on each cell. After complete washing out of the retigabine effect (duration: 80 s), the test substance was applied. • See: Hamill O P, Marty A, Neher E, Sakmann B, Sigworth F J.: Improved patch-clamp techniques for high-resolution current recording from cells and cell-free membrane patches. Pflugers Arch. 1981 August; 391(2):85-100.

Take `CC1c2cccn2CCN1C(=O)CCC(=O)NCc1cccc(C(F)(F)F)c1` (centres unmarked) [Example 86, 4-(1-methyl-3,4-dihydropyrrolo[1,2-a]pyrazin-2(1H)-yl-4-oxo-N-(3-trifluoromethyl)benzyl)butanamide]: the negative logarithm of the EC50 (pEC50) at hKCNQ2/3 [1] is 4.94.
`CC(NC(=O)CCC(=O)N1CCn2cccc2C1c1ccccc1)c1cccc(C(F)(F)F)c1` (centres unmarked) [Example 81, 4-oxo-4-(1-phenyl-3,4-dihydropyrrolo[1,2-a]pyrazin-2(1H)-yl)-N-(1-(3-(trifluoromethyl)phenyl)ethyl)butanamide] showed a negative-log EC50 (pEC50) on hKCNQ2/3 [1] of 5.53. Besides, at hKCNQ2/3 [2], the “MAN rel eff @ 10 μM [RG = 1]” value was 0.25.
As for `O=C(CN1CCn2cccc2C1c1ccccc1)NCc1cccc(C(F)(F)F)c1` (centres unmarked) [Example 91, 2-(1-phenyl-3,4-dihydropyrrolo[1,2-a]pyrazin-2(1H)-yl)-N-(3-(trifluoromethyl)benzyl)acetamide], the activation at 10 µM at hKCNQ2/3 [1] was found to be 9%.
For `O=C(/C=C/c1ccccc1F)NCC(=O)N1CCn2cccc2C1c1ccccc1` (centres unmarked) [Example 92, (E)-3-(2-fluorophenyl)-N-(2-oxo-2-(1-phenyl-3,4-dihydropyrrolo[1,2-a]pyrazin-2(1H)-yl)ethyl)acrylamide], the activation at 10 µM on hKCNQ2/3 [1] was 7%.
For `CC1c2cccn2CCN1C(=O)CCC(=O)NCc1ccc(F)cc1` (centres unmarked) [Example 85, N-(4-fluorobenzyl)-4-(1-methyl-3,4-dihydropyrrolo[1,2-a]pyrazin-2(1H)-yl)-4-oxobutanamide], the activation at 10 µM at hKCNQ2/3 [1] came out at 0%.
Take `O=C(CC(=O)N1CCn2cccc2C1c1ccccc1)Nc1cccc(C(F)(F)F)c1` (centres unmarked) [Example 90]: the activation at 10 µM at hKCNQ2/3 [1] was -20%. The “MAN rel eff @ 10 μM [RG = 1]” value on hKCNQ2/3 [2] was −0.46.
`Cc1ccc(C2c3cccn3CCN2CC(=O)NCc2cccc(C(F)(F)F)c2)cc1` (centres unmarked) [Example 37, 2-(1-p-tolyl-3,4-dihydro-1H-pyrrolo[1,2-a]pyrazin-2-yl)-N-(3-trifluoromethyl-benzyl)-acetamide]: the activation at 10 µM on hKCNQ2/3 [1] is 24%.
Turning to `O=C(CCC(=O)N1CCn2cccc2C1c1ccc(Cl)cc1)NCc1cccc(C(F)(F)F)c1` (centres unmarked) [Example 1, 4-[1-(4-chloro-phenyl)-3,4-dihydro-1H-pyrrolo[1,2-a]pyrazin-2-yl]-4-oxo-N-(3-trifluoromethyl-benzyl)-butyramide], the activation at 10 µM on hKCNQ2/3 [1] amounted to 69%.
`O=C(CC(=O)N1CCn2cccc2C1c1ccccc1)NCc1cccc(C(F)(F)F)c1` (centres unmarked) [Example 89, 3-oxo-3-(1-phenyl-3,4-dihydropyrrolo[1,2-a]pyrazin-2(1H)-yl)-N-(3-(trifluoromethyl)benzyl)propanamide]: the pEC50 at hKCNQ2/3 [1] was 5.34.
At hKCNQ2/3 [1], `CC(NC(=O)CCC(=O)N1CCn2cccc2C1c1cccs1)c1cccc(C(F)(F)F)c1` (centres unmarked) [Example 82, 4-oxo-4-(1-(thiophen-2-yl)-3,4-dihydropyrrolo[1,2-a]pyrazin-2(1H)-yl)-N-(1-(3-(trifluoromethyl)phenyl)ethyl)butanamide] had a negative-log EC50 (pEC50) of 5.28. Also, the “MAN rel eff @ 10 μM [RG = 1]” value at hKCNQ2/3 [2] is reported as 0.11.
As for `CC(NC(=O)CCC(=O)N1CCn2cccc2C1Cc1ccccc1)c1cccc(C(F)(F)F)c1` (centres unmarked) [Example 80, 4-(1-benzyl-3,4-dihydropyrrolo[1,2-a]pyrazin-2(1H)-yl)-4-oxo-N-(1-(3-(trifluoromethyl)phenyl)ethyl)butanamide], the activation at 10 µM on hKCNQ2/3 [1] worked out at 10%.
With `O=C(CCC(=O)N1CCn2cccc2C1c1ccccc1)NCc1cccs1` (centres unmarked) [Example 83, 4-oxo-4-(1-phenyl-3,4-dihydropyrrolo[1,2-a]pyrazin-2(1H)-yl)-N-(thiophen-2-ylmethyl)butanamide], the pEC50 at hKCNQ2/3 [1] is 4.84.
Same read-out and setting: with `O=C(CN1CCn2cccc2C1c1ccc2c(c1)OCCO2)NCc1cccc(C(F)(F)F)c1` (centres unmarked) [Example 8, 2-[1-(2,3-dihydro-benzo[1,4]dioxin-6-yl)-3,4-dihydro-1H-pyrrolo[1,2-a]pyrazin-2-yl]-N-(3-trifluoromethyl-benzyl)-acetamide] the figure was 5.53.
Consider `O=C(CCc1cccc(C(F)(F)F)c1)NCC(=O)N1CCn2cccc2C1c1ccccc1` (centres unmarked) [Example 87], for which the activation at 10 µM at hKCNQ2/3 [1] came to 3%.
Turning to `Cc1cccc(C2c3cccn3CCN2C(=O)CCC(=O)NCc2cccc(C(F)(F)F)c2)c1` (centres unmarked) [Example 5, 4-oxo-4-(1-m-tolyl-3,4-dihydro-1H-pyrrolo[1,2-a]pyrazin-2-yl)-N-(3-trifluoromethyl-benzyl)-butyramide], the activation at 10 µM at hKCNQ2/3 [1] is 28%.
`O=C(CCCc1ccccc1)NCC(=O)N1CCn2cccc2C1c1ccccc1` (centres unmarked) [Example 88, N-(2-oxo-2-(1-phenyl-3,4-dihydropyrrolo[1,2-a]pyrazin-2(1H)-yl)ethyl)-4-phenylbutanamide]: the activation at 10 µM on hKCNQ2/3 [1] is 5%.
With `COc1cccc(C2c3cccn3CCN2CC(=O)NCc2cccc(C(F)(F)F)c2)c1` (centres unmarked) [Example 20, 2-(1-(3-methoxyphenyl)-3,4-dihydropyrrolo[1,2-a]pyrazin-2(1H)-yl)-N-(3-(trifluoromethyl)benzyl)acetamide], on hKCNQ2/3 [1], the activation at 10 µM stood at 21%.
